Results from patent US11142520B2, “LDHA activity inhibitors” (ARCTIC PHARMA AS, priority 2017, dated 2021).

Key:
LDHA [1] = biological target: T1, LDHA (Homo sapiens (Human), UniProt P00338); experiment: Isothermal titration calorimetry (ITC); assay type: binding; details: 25° C., NADH 1 mM
Description: ITC experiments were performed using a MicorCal PEAQ ITC instrument. Prior to the experiments, LDHA was dialyzed against 50 mM potassium phosphate buffer pH 7.4, 150 mM NaCl, 0.002% pluronic acid F-127 at 4° C. overnight using mini dialysis kits from GE Healthcare. The tested compounds were dissolved to 100 mM in DMSO. After dialysis, the protein was centrifuged at 14,000 rpm at 4° C. for 30 min. Buffer and MilliQ water for the reference cell were degassed prior to use. Protein concentration was determined by A280 nm measurements using a Nanodrop. All ITC experiments were conducted at 25° C. with stirring at 750 rpm. In a typical experiment the compound of interest was loaded into the sample cell at 20 μM and LDHA (200 μM in syringe) was titrated to the compound solution in consecutive injections. NADH (1 mM) and DMSO concentrations (2%) were matched in all solutions. Data were analyzed using the MicroCal PEAQ-ITC analysis software and fitted to a single site binding model, resulting in binding constant Kd, enthalpy ΔH, entropy ΔS and the stoichiometry N.

LDHA [2] = biological target: T1, LDHA; experiment: Coupled diaphorase assay, LDHA; assay type: biochemical; details: lactate to pyruvate direction, 4-7 nM LDHA
Description: (§1) The inhibitory properties of the compounds were investigated using a coupled enzyme assay that links the lactate dehydrogenase (LDH) reaction to the production of fluorescent resorutin by diaphorase.
(§2) Human lactate dehydrogenases (LDH) catalyze the reversible interconversion between pyruvate and lactate. LDH is capable of catalyzing both the forward (pyruvate to lactate) and the reverse (lactate to pyruvate) reaction, using either NADH or NAD^+ as a cofactor. The reaction proceeds in either direction dependent on various factors, such as substrate availability, the presence of necessary cofactors, temperature and pH. Different isoforms (LDH A, B, and C) of the enzyme favor different reaction directions—LDHA prefers the conversion from pyruvate to lactate, whereas LDHB preferentially oxidizes lactate to pyruvate.
The coupled assay relies on the oxidation of NAD^+ to NADH throughout the conversion of lactate to pyruvate by LDH (isoforms A, B and C). The produced NADH serves as cofactor in the diaphorase reaction, which reduces non-fluorescent resazurin to fluorescent resorufin. Therefore, the assay indirectly monitors the rate of pyruvate production. Although the consumption of NADH can be directly monitored due to the intrinsic fluorescence of the molecule (excitation: 340 nm, emission: 460 nm) there are problems linked to the direct readout method. […] Shifting the assay to longer wavelengths by coupling the LDH reaction to the conversion of resazurin to fluorescent resorufin by diaphorase reduces this compound interference. The assay direction was thus chosen to provide a robust and reliable assay. […]
Compounds were tested in duplicates using 2-fold, 3-fold or 4-fold serial dilutions including 11 individual concentrations, starting from 5000 μM to 30 μM. […] The controls allowed for the calculation of the percentage inhibition for each data point. […] Enzyme solution leading to final concentrations of 4-7 nM LDHA or 6 nM LDHB, as well as 0.2 U/ml diaphorase in the reaction well was dispensed into 384-well plates (Greiner bio-one) using a CyBi®-SELMA robotic pipettor. Compound dilutions and the enzyme were incubated for at least 20 min at room temperature. […] The reaction was quenched by the addition of a stop solution (final concentrations: 20 mM EDTA, 400 mM NaCl, 40 mM pyruvate). Fluorescence was read out after 5 min of incubation at an excitation wavelength of 560 nm and an emission wavelength of 590 nm on a Perkin Elmer Victor X plate reader. […]
(§3) Fluorescence data was normalized to DMSO and inhibition controls resulting in percentage inhibition for every compound concentration. Dose response curves were fitted in KaleidaGraph (www.synergy.com) or Dotmatics software package (www.dotmatics.com) using a standard 4-parameter fit (Levenberg-Marquardt fitting procedure), resulting in IC50 values for the test compounds.

LDHB = LDHB (Homo sapiens (Human), UniProt P07195); experiment: Coupled diaphorase assay, LDHB; assay type: biochemical; details: lactate to pyruvate direction, 6 nM LDHB
LDHB, sequence (P07195 whole entry): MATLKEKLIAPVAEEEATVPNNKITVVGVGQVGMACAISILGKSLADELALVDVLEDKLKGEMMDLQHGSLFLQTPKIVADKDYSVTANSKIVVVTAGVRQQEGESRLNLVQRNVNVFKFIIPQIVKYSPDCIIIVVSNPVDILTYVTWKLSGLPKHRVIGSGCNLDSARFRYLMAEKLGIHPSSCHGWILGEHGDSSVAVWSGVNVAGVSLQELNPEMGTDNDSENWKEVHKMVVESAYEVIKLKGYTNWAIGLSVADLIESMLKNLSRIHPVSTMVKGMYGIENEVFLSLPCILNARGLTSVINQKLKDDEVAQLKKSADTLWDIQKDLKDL
Description: as §1, §2
The coupled assay relies on the oxidation of NAD^+ to NADH throughout the conversion of lactate to pyruvate by LDH (isoforms A, B and C). The produced NADH serves as cofactor in the diaphorase reaction, which reduces non-fluorescent resazurin to fluorescent resorufin. Therefore, the assay indirectly monitors the rate of pyruvate production. Although the consumption of NADH can be directly monitored due to the intrinsic fluorescence of the molecule (excitation: 340 nm, emission: 460 nm) there are problems linked to the direct readout method. […] Shifting the assay to longer wavelengths by coupling the LDH reaction to the conversion of resazurin to fluorescent resorufin by diaphorase reduces this compound interference. The assay direction was thus chosen to provide a robust and reliable assay.
Applying the LDHA reaction in the preferred direction for the conversion of pyruvate to lactate under oxidation of NADH to NAD^+ would necessitate running the LDHA reaction to about 80% completion and adding the diaphorase assay reagents afterwards in order to avoid enzyme competition for NADH.
The controls allowed for the calculation of the percentage inhibition for each data point. […] Enzyme solution leading to final concentrations of 4-7 nM LDHA or 6 nM LDHB, as well as 0.2 U/ml diaphorase in the reaction well was dispensed into 384-well plates (Greiner bio-one) using a CyBi®-SELMA robotic pipettor. Compound dilutions and the enzyme were incubated for at least 20 min at room temperature. […] The reaction was quenched by the addition of a stop solution (final concentrations: 20 mM EDTA, 400 mM NaCl, 40 mM pyruvate). Fluorescence was read out after 5 min of incubation at an excitation wavelength of 560 nm and an emission wavelength of 590 nm on a Perkin Elmer Victor X plate reader. […]
as §3

[3] = tested on: MIA PaCa-2 human pancreatic cells; details: MIA PaCa-2 cells; cited from earlier work
LDH = details: in vitro; cited from earlier work

Compound | IC50 (LDHA [2]) | IC50 (LDHB) | further results
O=C1CC(c2ccc(N3CCOCC3)cc2)(c2ccsc2)NC(=O)C1Sc1cc(Cl)ccc1Cl (racemic) [Example 10, 3-((2,5-dichlorophenyl)thio)-6-(4-morpholinophenyl)-6-(thiophen-3-yl)piperidine-2,4-dione] | 0.1 to 0.5 µM |  | -TΔS (LDHA [1]): 0.944 kcal/mol; Kd (LDHA [1]): 0.0432 µM; N (stoichiometry) (LDHA [1]): 0.796; ΔH (LDHA [1]): -11 kcal/mol
O=C1CC(c2ccsc2)(c2cccc(OCC3CCCC3)n2)NC(=O)C1Sc1ccc(F)cc1Cl (centres unmarked) [Example 3, 3-[(2-chloro-4-fluorophenyl)sulfanyl]-6-[6-(cyclopentylmethoxy)pyridin-2-yl]-6-(thiophen-3-yl)piperidine-2,4-dione] | 0.5 to 10 µM | > 100 µM | -TΔS (LDHA [1]): 5.11 kcal/mol; Kd (LDHA [1]): 0.373 µM; N (stoichiometry) (LDHA [1]): 0.721; ΔH (LDHA [1]): -3.68 kcal/mol
O=C1CC(c2ccsc2)(c2cccc(OCC3CCCC3)n2)NC(=O)C1Sc1cc(Cl)ccc1Cl (centres unmarked) [Example 5, 6-[6-(cyclopentylmethoxy)pyridin-2-yl]-3-[(2,5-dichlorophenyl)sulfanyl]-6-(thiophen-3-yl)piperidine-2,4-dione] | 0.1 to 0.5 µM |  | -TΔS (LDHA [1]): 4.06 kcal/mol; Kd (LDHA [1]): 0.671 µM; N (stoichiometry) (LDHA [1]): 0.548; ΔH (LDHA [1]): -4.35 kcal/mol
CC(=O)OC1=C(Sc2ccc(F)cc2Cl)C(=O)NC(c2ccsc2)(c2cccc(OCC3CCCC3)n2)C1 (centres unmarked) [Example 13, 5-((2-chloro-4-fluorophenyl)thio)-6′-(cyclopentylmethoxy)-6-oxo-2-(thiophen-3-yl)-1,2,3,6-tetrahydro-[2,2′-bipyridin]-4-yl acetate] | > 100 µM | > 100 µM | 
CCCOC(=O)OC1=C(Sc2ccc(F)cc2Cl)C(=O)NC(c2ccc(N3CCOCC3)cc2)(c2ccsc2)C1 (centres unmarked) [Example 14, 5-((2-chloro-4-fluorophenyl)thio)-2-(4-morpholinophenyl)-6-oxo-2-(thiophen-3-yl)-1,2,3,6-tetrahydropyridin-4-yl propyl carbonate] | 50 to 100 µM | 50 to 100 µM | 
CCOC(=O)OC1=C(Sc2cccc(Cl)c2Cl)C(=O)NC(c2ccc(N3CCOCC3)cc2)(c2ccsc2)C1 (centres unmarked) [Example 15, 5-((2,3-dichlorophcnyl)thio)-2-(4-morpholinophenyI)-6-oxo-2-(thiophcn-3-yl)-1,2,3,6-tetrahydropyridin-4-yl ethyl carbonate] | 50 to 100 µM | > 100 µM | 
O=C1CC(c2ccsc2)(c2ccccn2)OC(=O)C1Sc1ccccc1Cl (centres unmarked) [Example 20, 3-((2-chlorophenyl)thio)-6-(pyridin-2-yl)-6-(thiophen-3-yl)dihydro-2H-pyran-2,4(3H)-dione] | 0.5 to 10 µM | 0.5 to 10 µM | 
COCCOC(=O)OC1=C(Sc2ccc(Cl)cc2Cl)C(=O)NC(c2ccsc2)(c2cccc(OCC3CCCC3)n2)C1 (centres unmarked) [Example 22, 6′-(cyclopentylmethoxy)-5-((2,4-dichlorophenyl)thio)-6-oxo-2-(thiophen-3-yl)-1,2,3,6-tetrahydro-[2,2′-bipyridin]-4-yl (2-methoxyethyl) carbonate] | > 100 µM | > 100 µM | 
O=C1CC(c2ccc(N3CCOCC3)cc2)(c2ccsc2)NC(=O)C1Sc1ccccc1Cl (centres unmarked) [Example 24, 3-((2-chlorophenyl)thio)-6-(4-morpholinophenyl)-6-(thiophen-3-yl)piperidine-2,4-dione] |  |  | time of continuous LDHA inhibition until cell death occurred [3]: ≥ 2 days
NC(=O)C(=O)O [Oxamate] |  |  | concentration range that inhibits LDH enzyme activity (LDH): mM range

The next lines start with results.

IC50 (LDHA [2]) | IC50 (LDHB) | Compound | further results
0.5 to 10 µM | 0.5 to 10 µM | O=C1CC(c2cnc(N3CCOCC3)nc2)(c2ccsc2)OC(=O)C1Sc1ccccc1Cl (centres unmarked) [Example 23, 3-((2-chlorophenyl)thio)-6-(2-morpholinopyrimidin-5-yl)-6-(thiophen-3-yl)dihydro-2H-pyran-2,4(3H)-dione] | 
50 to 100 µM | > 100 µM | O=C1CC(c2ccc(N3CCOCC3)cc2)(c2ccsc2)NC(=O)C1Sc1ccc(Cl)cc1Cl (centres unmarked) [Example 29, 3-((2,4-dichlorophenyl)thio)-6-(4-morpholinophenyl)-6-(thiophen-3-yl)piperidine-2,4-dione] | 
> 100 µM | > 100 µM | COCCOC(=O)OC1=C(Sc2ccc(Cl)cc2Cl)C(=O)NC(c2ccc(N3CCOCC3)cc2)(c2ccsc2)C1 (centres unmarked) [Example 30, 5-((2,4-dichlorophenyl)thio)-2-(4-morpholinophenyl)-6-oxo-2-(thiophen-3-yl)-1,2,3,6-tetrahydropyridin-4-yl (2-methoxyethyl) carbonate] | 
> 100 µM | > 100 µM | CC(C)COC(=O)OC1=C(Sc2ccc(F)cc2Cl)C(=O)NC(c2ccc(N3CCOCC3)cc2)(c2ccsc2)C1 (centres unmarked) [Example 32, 5-((2-chloro-4-fluorophenyl)thio)-2-(4-morpholinophenyl)-6-oxo-2-(thiophen-3-yl)-1,2,3,6-tetrahydropyridin-4-yl iso-butyl carbonate] | 
0.5 to 10 µM | > 100 µM | COCCOC(=O)OC1=C(Sc2ccc(F)cc2Cl)C(=O)NC(c2ccc(N3CCOCC3)cc2)(c2ccsc2)C1 (centres unmarked) [Example 33, 5-((2-chloro-4-fluorophenyl)thio)-2-(4-morpholinophenyl)-6-oxo-2-(thiophen-3-yl)-1,2,3,6-tetrahydropyridin-4-yl (2-methoxyethyl) carbonate] | 
